The values that follow come from US7179805B2, “7-amino alkylidenyl-heterocyclic quinolones and naphthyridones” (Janssen Pharmaceutica N.V., priority 2003, dated 2007).

For experiment [1], the system named is Staphylococcus aureus OC4172. Put plainly: MIC, microdilution broth method (NCCLS). It is filed as cell-based. The conditions noted are these: organism A: Staphylococcus aureus OC4172; 35° C., 16–20 hours. As for the experimental part:
(§1) Minimal inhibitory concentration (MIC) has been an indicator of in vitro antibacterial activity widely used in the art. The in vitro antimicrobial activity of the compounds was determined by the microdilution broth method following the test method from the National Committee for Clinical Laboratory Standards (NCCLS). This method is described in the NCCLS Document M7-A4, Vol.17, No.2, “Methods for Dilution Antimicrobial Susceptibility Test for Bacteria that Grow Aerobically—Fourth Edition”, which is incorporated herein by reference.
(§2) In this method two-fold serial dilutions of drug in cation adjusted Mueller-Hinton broth are added to wells in microdilution trays. The test organisms are prepared by adjusting the turbidity of actively growing broth cultures so that the final concentration of test organism after it is added to the wells is approximately 5×10^4 CFU/well.
(§3) Following inoculation of the microdilution trays, the trays are incubated at 35° C. for 16–20 hours and then read. […] The amount of growth in the wells containing the test compound is compared with the amount of growth in the growth-control wells (no test compound) used in each tray. As set forth in Table 5, compounds of the present invention were tested against a variety of pathogenic bacteria resulting in a range of activities depending on the organism tested.
In general terms: Dilution methods test growth across graded concentrations, often in twofold steps.

Experiment [2] relates to Streptococcus pneumoniae ATCC 49619. Put plainly: MIC, microdilution broth method (NCCLS). The experiment is classed as cell-based. The conditions noted are these: ATCC49619; organism E: Streptococcus pneumoniae ATCC 49619; 35° C., 16–20 hours. The protocol:
as §1, §2, §3

Broadly, the MIC is the smallest concentration in the dilution series that meets the test's criterion for growth inhibition. Low readings indicate greater potency, high ones weaker potency. Turning to `CNCC=C1CCN(c2c(F)cc3c(=O)c(C(=O)O)cn(C4CC4)c3c2OC)CC1.O=C(O)C(F)(F)F` [Compound 221, 1-Cyclopropyl-6-fluoro-8-methoxy-7-[4-(2-methylaminoethylidene)piperidin-1-yl]-4-oxo-1,4-dihydroquinoline-3-carboxylic acid trifluoroacetic acid salt], the MIC in experiment [1] came out at 0.12 µg/mL; in experiment [2] it was 0.5 µg/mL.

In experiment [2], `NCC(F)=C1CCN(c2cc3c(cc2F)c(=O)c(C(=O)O)cn3C2CC2)CC1.O=C(O)C(F)(F)F` [Compound 5, 7-[4-(2-Amino-1-fluoro-ethylidene)piperidin-1-yl]-1-cyclopropyl-6-fluoro-4-oxo-1,4-dihydroquinoline-3-carboxylic acid trifluoroacetic acid salt] returned an MIC of 0.06 µg/mL.
